Values of other authors in patent US20210353650A1 (priority 2020, published 2021).

Key:
[1] = nonhuman primates, daily administration of 10 mg/kg; EMA 2020
[2] = test system: Vero African green monkey kidney epithelial cells; settings: Vero cells used in the CPE assay; 2012 study
[3] = test system: Vero E6 cells

## CCC(CC)COC(=O)[C@H](C)N[P@](=O)(OC[C@H]1O[C@@](C#N)(c2ccc3c(N)ncnn23)[C@H](O)[C@@H]1O)Oc1ccccc1 [Remdesivir]
[1]
  intracellular levels of the triphosphate form: sustained intracellular levels
[2]
  cytotoxicity toward host cells: without causing cytotoxicity
[3]
  cytotoxic concentration: > 100 mM
